One assay relates to peptide-pulsed T2 cells. Nature of the assay: Lysis of peptide-pulsed T2 target cells by peptide-specific CTL (peptide titration). The assay is classed as cell-based, human.
In assay [1] the test system is peptide-pulsed 51Cr-labelled T2 cells. The assay is described as follows: Cold target inhibition assay. It counts as cell-based, human. From the text:
CTL derived from healthy HLA-A*0201^+ individuals were generated using a protocol described elsewhere (Zeis M, Siegel S, Schmitz M et al. Induction of cytotoxic T lymphocytes against hematologic neoplasms by survivin RNA-transfected dendritic cells. J Immunol. 2003; 170, 5391-5397.). For the induction of autologous OFA/ILR, peptide-specific CTL obtained from patients with AML and CLL, CD8^+ T cells were separated from PBMC using immunomagnetic beads (MACS®, Miltenyi, Bergisch-Gladbach, Germany), cultured with autologous OFA/iLR peptide-pulsed fully matured DC and restimulated with autologous peptide-pulsed PBMC in the presence of IL-2 (1 ng/ml, CellConcepts, Weisskirch, Germany). After at least four weekly restimulations, CTL reactivity was determined in a conventional 4 h ^51Chromium release assay. Cold target inhibition assays and antibody blocking experiments were performed as previously described (Zeis M, Siegel S, Schmitz M et al. Induction of cytotoxic T lymphocytes against hematologic neoplasms by survivin RNA-transfected dendritic cells. J Immunol. 2003; 170, 5391-5397.).
A cold target inhibition assay was performed. To examine whether ILR1-specific T cells lyse ILR1 peptide-pulsed T2 cells specifically and in the context of HLA-A*02, cold target inhibition assays were performed as follows: ^51Cr-labelled T2 cells were loaded with peptide in a concentration of 10 microgram peptide/10^6 T2 cells/ml. A total of 2×10^5 unlabelled, T2 cells, which had equally been loaded with the same or a control peptide, were then added in a volume of 50 microliter AIMV to 10^4 peptide-pulsed, ^51Cr-labelled T2 cells. Effector T cells specific for ILR1 were added and a ^51Cr-release assay was performed as described above.
A cold target inhibition assay was performed as described under “T2+ILR1” above.

For “ILKEPVHGV [HIV peptide, reference compound]”, the “recognition/lysis of T2 cells pulsed with the peptide” value in the assay with peptide-pulsed T2 cells is listed as “not recognized”.

“LYLKNYRIA (listed as Homo sapiens) [Survivin, reference compound]”: the “competition of cold targets loaded with the peptide for lysis” value in assay [1] (hot target ILR1-peptide-pulsed T2, effectors ILR1-specific CTL, 10 microgram peptide/10^6 T2 cells/ml) is “neither peptides irrelevant for ILR1-specific CTL (Survivin and ILR2), nor unloaded T2 cells, which display empty HLA-A*02 molecules on their cell surfaces, compete for lysis”; in assay [1] (hot target ILR2-peptide-pulsed T2, effectors ILR2-specific CTL) it was “neither peptides irrelevant for ILR2-specific CTL (Survivin and ILR1), nor unloaded T2 cells, which display empty HLA-A*02 molecules on their cell surfaces, compete for lysis”.

Values taken from patent US7968097B2, “Identification of Hla-A2-presented T-cell epitopes derived from the oncofoetal antigen-immature laminin receptor protein and uses thereof” (Immatics Biotechnologies GmbH, priority 2005, dated 2011).
